Data as given in PubChem BioAssay AID330 (DTP/NCI, 2004).
Where “and” joins values, the source holds several entries; their conditions need not be identical. Equal entries are not always repeated. Toxic doses and inconclusive results are not listed. Rule for the calls: active = survival T/C of 150% or more; inactive = T/C below 125% in these data.

Test system: P388 leukemia ip, CD2F1 mice, survival T/C
Assay: NCI In Vivo Anticancer Drug Screen. Data for tumor model P388 Leukemia (intraperitoneal) in CD2F1 (CDF1) mice
Conditions: endpoint: median survival time, higher = longer survival
Procedure, shortened: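 Mice carrying the transplanted tumor received test compound or vehicle. Survival was recorded in each group, and the value is the treated-group measurement divided by that of the vehicle-treated control group.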

[1] = dose: 50.0 mg/kg/injection, schedule: Q01DX009 (ip), vehicle: Klucel (hydroxypropylcellulose) (HPC)
[2] = dose: 100.0 mg/kg/injection, schedule: Q01DX009 (ip), vehicle: Klucel (hydroxypropylcellulose) (HPC)
[3] = dose: 60.0 mg/kg/injection, schedule: Q01DX005 (ip), vehicle: saline with Tween-80
[4] = dose: 120.0 mg/kg/injection, schedule: Q01DX005 (ip), vehicle: saline with Tween-80
[5] = dose: 240.0 mg/kg/injection, schedule: Q01DX005 (ip), vehicle: saline with Tween-80
[6] = dose: 50.0 mg/kg/injection, schedule: Q01DX005 (ip), vehicle: saline with Tween-80
[7] = dose: 100.0 mg/kg/injection, schedule: Q01DX005 (ip), vehicle: saline with Tween-80
[8] = dose: 200.0 mg/kg/injection, schedule: Q01DX005 (ip), vehicle: saline with Tween-80
[9] = dose: 12.5 mg/kg/injection, schedule: Q01DX005 (ip), vehicle: saline with Tween-80
[10] = dose: 25.0 mg/kg/injection, schedule: Q01DX005 (ip), vehicle: saline with Tween-80
[11] = dose: 200.0 mg/kg/injection, schedule: Q01DX009 (ip), vehicle: Klucel (hydroxypropylcellulose) (HPC)
[12] = dose: 25.0 mg/kg/injection, schedule: Q01DX009 (ip), vehicle: saline with Tween-80
[13] = dose: 50.0 mg/kg/injection, schedule: Q01DX009 (ip), vehicle: saline with Tween-80
[14] = dose: 5.0 mg/kg/injection, schedule: Q01DX009 (ip), vehicle: saline with Tween-80
[15] = dose: 50.0 mg/kg/injection, schedule: Q01DX005 (ip), vehicle: Klucel (hydroxypropylcellulose) (HPC)
[16] = dose: 100.0 mg/kg/injection, schedule: Q01DX005 (ip), vehicle: Klucel (hydroxypropylcellulose) (HPC)
[17] = dose: 200.0 mg/kg/injection, schedule: Q01DX005 (ip), vehicle: Klucel (hydroxypropylcellulose) (HPC)
[18] = dose: 100.0 mg/kg/injection, schedule: Q01DX001 (ip), vehicle: Klucel (hydroxypropylcellulose) (HPC)
[19] = dose: 200.0 mg/kg/injection, schedule: Q01DX001 (ip), vehicle: Klucel (hydroxypropylcellulose) (HPC)
[20] = dose: 400.0 mg/kg/injection, schedule: Q01DX001 (ip), vehicle: Klucel (hydroxypropylcellulose) (HPC)

Measured: T/C

CN(C)C(=S)S(=O)(=O)c1ccccc1
inactive: dose: 12.5 mg/kg/injection, schedule: Q01DX009 (ip), vehicle: Klucel (hydroxypropylcellulose) (HPC) 123 % of control | dose: 25.0 mg/kg/injection, schedule: Q01DX009 (ip), vehicle: Klucel (hydroxypropylcellulose) (HPC) 123 % of control | [1] 123 % of control

N#CSc1ccc2nc(NCO)sc2c1
inactive: [1] 104 % of control | [2] 101 % of control

CCOC(=O)c1c(C(=O)OC)nc2n1-c1ccccc1OC2
inactive: dose: 30.0 mg/kg/injection, schedule: Q01DX005 (ip), vehicle: saline with Tween-80 97 % of control | [3] 92 % of control and 94 % of control | [4] 93 % of control | [5] 93 % of control

ONc1ncnc2nc[nH]c12
inactive: dose: 50.0 mg/kg/injection, schedule: Q04DX003 (ip), vehicle: saline with Tween-80 122 % of control | dose: 200.0 mg/kg/injection, schedule: Q04DX003 (ip), vehicle: saline sonified 120 % of control

Cc1nc2c(sc3ccccc3n2C)c2nc3c(sc4ccccc4n3C)c(C)c12
inactive: [6] 92 % of control | [7] 90 % of control | [8] 86 % of control

CCCCC(CC)CN1CN2CN(CC(CC)CCCC)CC2(C)C1 (centres undefined)
inactive: [9] 100 % of control | [10] 105 % of control | [6] 104 % of control and 105 % of control

CC(=O)[C-](I)C(C)=O.CC(=O)[C-](I)C(C)=O.CC(=O)[C-](I)C(C)=O.[Ru+3]
inactive: dose: 60.0 mg/kg/injection, schedule: Q01DX005 (ip), vehicle: Klucel (hydroxypropylcellulose) (HPC) 106 % of control | dose: 120.0 mg/kg/injection, schedule: Q01DX005 (ip), vehicle: Klucel (hydroxypropylcellulose) (HPC) 106 % of control | dose: 240.0 mg/kg/injection, schedule: Q01DX005 (ip), vehicle: Klucel (hydroxypropylcellulose) (HPC) 115 % of control

COc1nc(NC2OC(COC(C)=O)C(OC(C)=O)C(OC(C)=O)C2OC(C)=O)c(N=CC=Nc2c(NC3OC(COC(C)=O)C(OC(C)=O)C(OC(C)=O)C3OC(C)=O)nc(OC)n(C)c2=O)c(=O)n1C (centres undefined)
inactive: [3] 86 % of control | [4] 92 % of control | [5] 94 % of control

CCOc1ccccc1/C=C1\CCc2ccccc2C1=O
inactive: [1] 100 % of control | [2] 100 % of control | [11] 102 % of control

CCSCCC(N)C(=O)O (centres undefined)
inactive: dose: 12.5 mg/kg/injection, schedule: Q01DX009 (ip), vehicle: saline with Tween-80 95 % of control | [12] 100 % of control | [13] 100 % of control | dose: 100.0 mg/kg/injection, schedule: Q04DX003 (ip), vehicle: saline with Tween-80 104 % of control | dose: 200.0 mg/kg/injection, schedule: Q04DX003 (ip), vehicle: saline with Tween-80 100 % of control | dose: 400.0 mg/kg/injection, schedule: Q04DX003 (ip), vehicle: saline with Tween-80 109 % of control

O=C1C(=O)c2ccccc2C(O)=C1CCCc1ccc(OCc2ccccc2)cc1
inactive: [14] 107 % of control | dose: 10.0 mg/kg/injection, schedule: Q01DX009 (ip), vehicle: saline with Tween-80 117 % of control | dose: 20.0 mg/kg/injection, schedule: Q01DX009 (ip), vehicle: saline with Tween-80 108 % of control | dose: 40.0 mg/kg/injection, schedule: Q01DX009 (ip), vehicle: saline with Tween-80 105 % of control

CCN(CC)C1=C(c2ccccc2)C(=O)C1(C#N)C(C)(C)C (centres undefined)
inactive: [15] 98 % of control | [16] 93 % of control | [17] 93 % of control

Clc1ccc(-c2n[se]c(-c3ccc(Cl)cc3)n2)cc1
inactive: [12] 87 % of control | [13] 89 % of control

CS(=O)(=O)c1snc(N)c1C#N
inactive: [9] 106 % of control | [10] 101 % of control | [6] 102 % of control

CCOC(=O)C1=C(C)OC(C)(OC(C)=O)C1=O (centres undefined)
inactive: dose: 50.0 mg/kg/injection, schedule: Q01DX005 (ip), vehicle: saline 90 % of control | dose: 100.0 mg/kg/injection, schedule: Q01DX005 (ip), vehicle: saline 103 % of control | dose: 200.0 mg/kg/injection, schedule: Q01DX005 (ip), vehicle: saline 105 % of control

COc1ccc(NC(=O)CCC(=O)C(C)C(=O)c2ccccc2)cc1 (centres undefined)
inactive: [3] 109 % of control | [4] 114 % of control | [5] 120 % of control

CC1N[P+]2(Nc3ccccc3O2)OC1=O (centres undefined)
inactive: [18] 103 % of control | [19] 103 % of control | [20] 106 % of control

Cc1cc(NS(=O)(=O)c2ccc(N=Nc3c(O)n(-c4ccccc4)n(-c4ccccc4)c3=O)cc2)no1
inactive: [1] 102 % of control | [2] 100 % of control | [11] 92 % of control

COc1ccc2nc(N/N=C(/c3ccccc3)c3ccccn3)cc(C)c2c1
inactive: [6] 107 % of control | [7] 100 % of control | [8] 100 % of control

COc1ccc2nccc(C(C)=O)c2c1
inactive: [15] 100 % of control | [16] 98 % of control | [17] 106 % of control

Cc1ccc2c(ccc3c[n+]4ccccc4c(C)c32)c1
inactive: dose: 2.2 mg/kg/injection, schedule: Q01DX009 (ip), vehicle: saline with Tween-80 122 % of control | dose: 3.3 mg/kg/injection, schedule: Q01DX009 (ip), vehicle: saline with Tween-80 114 % of control | [14] 122 % of control | dose: 6.25 mg/kg/injection, schedule: Q04DX003 (ip), vehicle: other 112 % of control | dose: 7.5 mg/kg/injection, schedule: Q01DX009 (ip), vehicle: saline with Tween-80 120 % of control | dose: 12.5 mg/kg/injection, schedule: Q04DX003 (ip), vehicle: other 112 % of control | dose: 25.0 mg/kg/injection, schedule: Q04DX003 (ip), vehicle: other 108 % of control

O=C1CSc2c(ccc3c4c([nH]c23)C(=O)CCC4)N1
inactive: [18] 99 % of control | [19] 90 % of control | [20] 97 % of control

O=C1N(c2ccccc2)N=C2CCCCCCCCCCC12O (centres undefined)
inactive: [15] 93 % of control | [16] 97 % of control | [17] 94 % of control

CCN(CC)CCCC(C)NCCCN (centres undefined)
inactive: dose: 100.0 mg/kg/injection, schedule: Q04DX003 (ip), vehicle: saline 100 % of control | dose: 200.0 mg/kg/injection, schedule: Q04DX003 (ip), vehicle: saline 90 % of control

O=C(Nc1ncc([N+](=O)[O-])s1)C(Cl)Cl
inactive: [1] 118 % of control | [2] 111 % of control

Cc1ccc(-c2cc(N)n(-c3nnc(-c4ccccc4)c(-c4ccccc4)n3)n2)cc1
inactive: [6] 105 % of control | [7] 105 % of control | [8] 93 % of control

S=c1cc(S)sc2c1c(=S)sc1nc3ccccn3c(=S)c12
inactive: dose: 12.5 mg/kg/injection, schedule: Q01DX005 (ip), vehicle: Klucel (hydroxypropylcellulose) (HPC) 96 % of control | dose: 25.0 mg/kg/injection, schedule: Q01DX005 (ip), vehicle: Klucel (hydroxypropylcellulose) (HPC) 99 % of control and 98 % of control | [15] 96 % of control | [16] 107 % of control and 94 % of control

COc1ccc(OCC2CN(C)CCC2c2ccccc2)cc1 (centres undefined)
inactive: dose: 12.5 mg/kg/injection, schedule: Q01DX009 (ip), vehicle: saline 99 % of control | dose: 25.0 mg/kg/injection, schedule: Q01DX009 (ip), vehicle: saline 100 % of control | dose: 50.0 mg/kg/injection, schedule: Q01DX009 (ip), vehicle: saline 101 % of control and 94 % of control
